Data set [1] is described as follows: Solubility in water at room temperature.
Data set [2] deals with focal cerebral ischemia (middle cerebral artery occlusion). The experiment in a line: Focal cerebral ischemia, intraluminal suture occlusion of the middle cerebral artery (MCAO); relative infarction volume by TTC staining. The settings on record: for Relative infarction volume expressed as percent of the total brain volume of the right hemisphere, mean: 0.012 mg/kg intrathecal single dose (example 3), control 18.08, n 15. The format is in vivo.

Data set [3] can be described thus: Physical stability of aqueous corticosteroid solutions (ethanol stock added to saline or x-ray contrast agent).
A short description of data set [4]: Blood glucose with glucose oxidase reagent strips in the MCAO animals of Example 5. The note with it: intrathecal 0.012 mg/kg; venous blood preoperatively, prior to, 2 h and 24 h after administration; versus saline control (FIG. 1).
Experimental: In the animals used in ‘Example 5’ additionally blood glucose was measured with glucose oxidase reagent strips (Accu-Chek® Sensor, Roche Diagnostik GmbH, Mannheim, Germany) using a drop of venous blood preoperatively, immediately prior to, at 2 hours and at 24 hours after Triamcinolone acetonide administration.
Data set [5] is described as follows: physchem. The settings on record: water.
Where [6] appears, read: Isovist 300, time after mixing 0.

Converted amounts (≈) assume the structure as drawn. Marks after values point to notes of the source that are not given here.

A word on the solubility: it is the dissolved amount per volume that the medium holds. The low end stands for a poorly soluble substance, the high end for a readily soluble substance. As for `CC1(C)O[C@@H]2C[C@H]3[C@@H]4CCC5=CC(=O)C=C[C@]5(C)[C@@]4(F)[C@@H](O)C[C@]3(C)[C@]2(C(=O)CO)O1` [Triamcinolone acetonide], the solubility in data set [1] is ~20 µg/mL (≈ 46 µM). Besides, the “Relative infarction volume expressed as percent of the total brain volume of the right hemisphere, mean” value in data set [2] (drug administration 30 Min after MCAO) is reported as 12.86* percent; in data set [2] (drug administration 1 h after MCAO), 9.68** percent; in data set [2] (drug administration 2 h after MCAO) it was 10.57* percent; in data set [2] (drug administration 4 h after MCAO) it was 9.05** percent. In addition, in data set [2] (0.012 mg/kg intrathecally, preparation of example 2, 30 minutes after MCA occlusion), the “reduction in infarction size compared to controls” value turned out to be 33%. Besides, the “infarction volume (percent of the total brain volume of the right hemisphere)” value in data set [2] (0.012 mg/kg intrathecally, preparation of example 2, 30 minutes after MCA occlusion, sacrificed 24 h after MCAO, controls 20.0±8.0%, p=0.02) was 13.4±6.5%. The “Physical stability (appearance)” value in data set [3] (Isovist 300, 2 h after mixing) is given as “clear”; in data set [3] (Isovist 300, 48 h after mixing), “fine particles”; in data set [3] (setting [6]), “clear”; in data set [3] (Saline, time after mixing 0), “clear (?)”; in data set [3] (Ultravist 370, 2 h after mixing) it was “clear”; in data set [3] (Ultravist 370, 48 h after mixing), “clear”. Besides, the “Physical stability (appearance)” value in data set [3] (Ultravist 370, time after mixing 0) is “clear”. In data set [4], the “effect on blood glucose” value is reported as “does not cause any additional effect”.
For `C[C@@H]1C[C@H]2[C@@H]3CCC4=CC(=O)C=C[C@]4(C)[C@@]3(F)[C@@H](O)C[C@]2(C)[C@@]1(O)C(=O)CO` [Dexamethasone, dexamethasone], the “Physical stability (appearance)” value in data set [3] (Isovist 300, 2 h after mixing) was “clear”; in data set [3] (Isovist 300, 48 h after mixing) it was “clear”; in data set [3] (setting [6]), “clear”; in data set [3] (Saline, 2 h after mixing), “clear”; in data set [3] (Saline, time after mixing 0), “clear”; in data set [3] (Ultravist 300, 2 h after mixing) it was “clear”. Moreover, the “Physical stability (appearance)” value in data set [3] (Ultravist 300, 48 h after mixing) is given as “clear”; in data set [3] (Ultravist 300, time after mixing 0) it was “clear”. For the same compound, the solubility in data set [5] was ~85 µg/mL (≈ 217 µM).

Source of the values: patent US20070004692A1, “Preparations and therapy of intrathecal inflammatory disease” (priority 2005, published 2007).
